Source: patent US11208412B2 (DAEGU-GYEONGBUK MEDICAL INNOVATION FOUNDATION, priority 2017, dated 2021)

Columns and labels:
Assay in all cases: Kinase selectivity, DiscoverX scanMAX Kinase assay panel (% control)
Assay type in all cases: binding
[1] = target: T1, kinases of the scanMAX Kinase assay panel (Homo sapiens, UniProt P36888, K663Q); conditions: FLT3(K663Q); 1 uM
T1 construct: purchased DiscoverX Co. (contract measurement) scanMAX Kinase assay panel
T1 sequence (P36888 27-993 K663Q): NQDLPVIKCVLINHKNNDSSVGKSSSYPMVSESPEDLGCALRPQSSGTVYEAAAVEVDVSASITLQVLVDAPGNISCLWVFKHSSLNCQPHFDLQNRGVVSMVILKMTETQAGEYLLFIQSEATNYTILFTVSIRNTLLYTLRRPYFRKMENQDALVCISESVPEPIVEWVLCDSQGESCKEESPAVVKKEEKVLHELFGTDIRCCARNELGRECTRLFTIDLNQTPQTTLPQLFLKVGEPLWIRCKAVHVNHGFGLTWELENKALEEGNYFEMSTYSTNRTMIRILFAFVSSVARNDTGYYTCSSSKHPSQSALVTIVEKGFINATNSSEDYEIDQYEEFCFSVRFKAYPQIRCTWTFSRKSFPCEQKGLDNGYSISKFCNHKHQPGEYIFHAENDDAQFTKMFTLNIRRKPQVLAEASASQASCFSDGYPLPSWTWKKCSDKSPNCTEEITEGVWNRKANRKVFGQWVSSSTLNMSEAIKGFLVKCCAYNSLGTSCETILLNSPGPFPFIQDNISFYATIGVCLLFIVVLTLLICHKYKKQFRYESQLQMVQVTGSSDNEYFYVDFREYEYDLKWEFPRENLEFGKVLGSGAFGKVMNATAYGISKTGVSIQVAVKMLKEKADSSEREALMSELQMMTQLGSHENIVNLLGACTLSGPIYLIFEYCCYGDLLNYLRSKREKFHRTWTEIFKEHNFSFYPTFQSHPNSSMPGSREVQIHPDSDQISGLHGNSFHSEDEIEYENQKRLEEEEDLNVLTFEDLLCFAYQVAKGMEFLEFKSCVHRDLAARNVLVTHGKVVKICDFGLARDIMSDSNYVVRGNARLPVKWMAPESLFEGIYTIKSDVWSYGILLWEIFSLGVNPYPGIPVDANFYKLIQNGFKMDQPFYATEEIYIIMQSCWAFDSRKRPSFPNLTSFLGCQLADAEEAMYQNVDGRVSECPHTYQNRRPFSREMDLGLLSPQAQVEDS
Method in brief: (§1)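 Compounds were tested at 1 uM (in DMSO) against each panel kinase. % control was calculated as (compound − positive control)/(negative control − positive control)×100, where the positive control gives 0% and DMSO gives 100%. Activity toward a kinase was called at % control <35%.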

[2] = target: T2, kinases of the scanMAX Kinase assay panel (Homo sapiens, UniProt Q04912); conditions: MST1R; 1 uM
T2 construct: purchased DiscoverX Co. (contract measurement) scanMAX Kinase assay panel
Method in brief: as §1

[3] = target: T3, kinases of the scanMAX Kinase assay panel (Homo sapiens, UniProt Q9Y3S1); conditions: kinase WNK2; 1 uM in DMSO
T3 construct: purchased DiscoverX Co. (contract measurement) scanMAX Kinase assay panel
T3 sequence (Q9Y3S1 whole entry): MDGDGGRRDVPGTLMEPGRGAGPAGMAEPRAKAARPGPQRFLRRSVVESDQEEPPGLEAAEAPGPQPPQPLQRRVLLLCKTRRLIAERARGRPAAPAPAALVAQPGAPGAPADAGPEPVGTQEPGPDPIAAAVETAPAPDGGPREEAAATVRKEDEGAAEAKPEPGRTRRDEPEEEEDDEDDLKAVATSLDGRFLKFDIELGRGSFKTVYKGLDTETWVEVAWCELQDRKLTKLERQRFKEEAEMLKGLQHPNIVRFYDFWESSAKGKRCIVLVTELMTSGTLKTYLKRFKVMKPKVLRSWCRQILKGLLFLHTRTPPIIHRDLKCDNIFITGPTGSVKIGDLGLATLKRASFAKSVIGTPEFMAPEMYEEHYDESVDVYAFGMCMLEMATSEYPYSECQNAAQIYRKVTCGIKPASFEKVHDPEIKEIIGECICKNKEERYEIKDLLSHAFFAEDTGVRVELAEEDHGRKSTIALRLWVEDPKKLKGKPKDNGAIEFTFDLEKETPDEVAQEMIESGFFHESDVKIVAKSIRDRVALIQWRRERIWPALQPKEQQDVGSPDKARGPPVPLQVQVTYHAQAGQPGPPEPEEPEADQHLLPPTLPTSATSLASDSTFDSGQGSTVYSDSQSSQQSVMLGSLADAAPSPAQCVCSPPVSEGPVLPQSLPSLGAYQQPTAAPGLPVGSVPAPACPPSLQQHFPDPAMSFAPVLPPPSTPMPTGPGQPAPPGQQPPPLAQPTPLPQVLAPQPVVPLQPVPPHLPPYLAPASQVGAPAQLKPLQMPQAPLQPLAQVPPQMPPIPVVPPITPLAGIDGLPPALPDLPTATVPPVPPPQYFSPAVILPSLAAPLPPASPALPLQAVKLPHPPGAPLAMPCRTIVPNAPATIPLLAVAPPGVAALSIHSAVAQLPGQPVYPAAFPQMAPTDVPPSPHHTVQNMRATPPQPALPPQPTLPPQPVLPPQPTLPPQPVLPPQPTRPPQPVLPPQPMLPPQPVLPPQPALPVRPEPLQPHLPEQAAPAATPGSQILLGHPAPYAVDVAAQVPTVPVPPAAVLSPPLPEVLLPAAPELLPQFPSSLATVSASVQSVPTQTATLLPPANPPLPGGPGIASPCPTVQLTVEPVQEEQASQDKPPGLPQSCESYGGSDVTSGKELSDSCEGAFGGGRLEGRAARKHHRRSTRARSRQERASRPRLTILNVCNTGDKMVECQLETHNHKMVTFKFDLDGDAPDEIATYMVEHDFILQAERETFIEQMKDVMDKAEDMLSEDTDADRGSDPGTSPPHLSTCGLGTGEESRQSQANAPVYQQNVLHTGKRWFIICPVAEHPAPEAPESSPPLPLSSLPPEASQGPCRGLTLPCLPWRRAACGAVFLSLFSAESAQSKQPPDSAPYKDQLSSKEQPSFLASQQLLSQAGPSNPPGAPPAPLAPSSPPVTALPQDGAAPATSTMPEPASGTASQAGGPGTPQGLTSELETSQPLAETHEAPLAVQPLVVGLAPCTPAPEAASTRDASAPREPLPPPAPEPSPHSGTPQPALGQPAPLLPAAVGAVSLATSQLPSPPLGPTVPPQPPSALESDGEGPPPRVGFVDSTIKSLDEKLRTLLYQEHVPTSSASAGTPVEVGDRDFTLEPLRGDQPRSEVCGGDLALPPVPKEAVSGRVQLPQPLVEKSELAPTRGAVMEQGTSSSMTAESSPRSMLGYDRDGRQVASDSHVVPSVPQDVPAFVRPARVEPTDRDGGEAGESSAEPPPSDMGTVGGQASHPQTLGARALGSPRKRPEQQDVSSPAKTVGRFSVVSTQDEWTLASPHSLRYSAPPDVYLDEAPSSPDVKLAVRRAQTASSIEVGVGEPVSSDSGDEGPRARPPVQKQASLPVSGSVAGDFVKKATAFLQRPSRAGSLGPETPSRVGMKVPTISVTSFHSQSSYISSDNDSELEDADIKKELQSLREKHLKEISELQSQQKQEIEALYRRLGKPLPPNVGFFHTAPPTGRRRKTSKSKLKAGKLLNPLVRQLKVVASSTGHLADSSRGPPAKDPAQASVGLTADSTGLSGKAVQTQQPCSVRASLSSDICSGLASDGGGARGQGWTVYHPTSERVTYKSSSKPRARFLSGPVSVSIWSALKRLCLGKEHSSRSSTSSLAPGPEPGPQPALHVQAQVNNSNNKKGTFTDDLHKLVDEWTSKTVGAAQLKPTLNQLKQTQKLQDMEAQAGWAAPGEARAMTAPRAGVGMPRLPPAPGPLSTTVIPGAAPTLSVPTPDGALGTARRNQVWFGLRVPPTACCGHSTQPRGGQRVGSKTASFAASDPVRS
Method in brief: as §1

[4] = target: T4, kinases of the scanMAX Kinase assay panel (Homo sapiens, UniProt Q8TF76); conditions: HASPIN; 1 uM
T4 construct: purchased DiscoverX Co. (contract measurement) scanMAX Kinase assay panel
T4 sequence (Q8TF76 1-798): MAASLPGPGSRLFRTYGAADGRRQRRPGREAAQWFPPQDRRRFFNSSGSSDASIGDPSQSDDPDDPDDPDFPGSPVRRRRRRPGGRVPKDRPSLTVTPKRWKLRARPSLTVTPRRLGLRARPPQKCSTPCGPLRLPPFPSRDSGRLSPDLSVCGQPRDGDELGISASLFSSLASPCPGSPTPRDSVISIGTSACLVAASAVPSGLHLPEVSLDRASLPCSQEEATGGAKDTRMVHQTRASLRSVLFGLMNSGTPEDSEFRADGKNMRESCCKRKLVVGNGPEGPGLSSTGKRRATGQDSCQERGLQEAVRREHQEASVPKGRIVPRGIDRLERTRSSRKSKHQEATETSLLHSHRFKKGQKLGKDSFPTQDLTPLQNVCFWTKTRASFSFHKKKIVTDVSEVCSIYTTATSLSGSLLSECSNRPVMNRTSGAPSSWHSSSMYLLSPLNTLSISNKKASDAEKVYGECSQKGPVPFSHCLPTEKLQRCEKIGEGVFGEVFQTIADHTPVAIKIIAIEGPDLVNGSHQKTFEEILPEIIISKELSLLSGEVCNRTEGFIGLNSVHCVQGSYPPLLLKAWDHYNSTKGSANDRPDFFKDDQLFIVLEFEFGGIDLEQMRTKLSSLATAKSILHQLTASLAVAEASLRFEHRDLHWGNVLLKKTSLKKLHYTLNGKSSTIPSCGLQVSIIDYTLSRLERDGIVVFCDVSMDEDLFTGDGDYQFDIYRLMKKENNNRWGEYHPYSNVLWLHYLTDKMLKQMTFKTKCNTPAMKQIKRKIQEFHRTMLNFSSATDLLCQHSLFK
Method in brief: as §1

[5] = target: T5, kinases of the scanMAX Kinase assay panel (Homo sapiens, UniProt O75914); conditions: PAK3; 1 uM
T5 construct: purchased DiscoverX Co. (contract measurement) scanMAX Kinase assay panel
T5 sequence (O75914 whole entry): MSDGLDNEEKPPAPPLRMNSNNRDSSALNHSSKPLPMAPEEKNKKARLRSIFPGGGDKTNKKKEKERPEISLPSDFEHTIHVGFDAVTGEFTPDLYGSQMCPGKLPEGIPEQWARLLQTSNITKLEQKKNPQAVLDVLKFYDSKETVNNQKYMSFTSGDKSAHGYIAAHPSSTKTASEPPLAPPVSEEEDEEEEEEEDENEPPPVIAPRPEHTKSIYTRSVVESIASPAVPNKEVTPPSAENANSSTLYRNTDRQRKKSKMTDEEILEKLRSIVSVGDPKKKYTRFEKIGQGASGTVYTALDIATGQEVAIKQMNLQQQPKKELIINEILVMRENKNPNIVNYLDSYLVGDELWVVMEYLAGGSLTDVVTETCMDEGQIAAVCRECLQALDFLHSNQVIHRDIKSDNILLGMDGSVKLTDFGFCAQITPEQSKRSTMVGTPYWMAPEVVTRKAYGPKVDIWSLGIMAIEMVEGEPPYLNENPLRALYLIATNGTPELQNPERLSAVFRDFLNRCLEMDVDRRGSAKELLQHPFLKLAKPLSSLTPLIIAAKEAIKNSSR
Method in brief: as §1

[6] = target: T6, kinases of the scanMAX Kinase assay panel (Homo sapiens, UniProt P42336, E545A); conditions: PIK3CA(E545A); 1 uM
T6 construct: purchased DiscoverX Co. (contract measurement) scanMAX Kinase assay panel
T6 sequence (P42336 whole entry E545A): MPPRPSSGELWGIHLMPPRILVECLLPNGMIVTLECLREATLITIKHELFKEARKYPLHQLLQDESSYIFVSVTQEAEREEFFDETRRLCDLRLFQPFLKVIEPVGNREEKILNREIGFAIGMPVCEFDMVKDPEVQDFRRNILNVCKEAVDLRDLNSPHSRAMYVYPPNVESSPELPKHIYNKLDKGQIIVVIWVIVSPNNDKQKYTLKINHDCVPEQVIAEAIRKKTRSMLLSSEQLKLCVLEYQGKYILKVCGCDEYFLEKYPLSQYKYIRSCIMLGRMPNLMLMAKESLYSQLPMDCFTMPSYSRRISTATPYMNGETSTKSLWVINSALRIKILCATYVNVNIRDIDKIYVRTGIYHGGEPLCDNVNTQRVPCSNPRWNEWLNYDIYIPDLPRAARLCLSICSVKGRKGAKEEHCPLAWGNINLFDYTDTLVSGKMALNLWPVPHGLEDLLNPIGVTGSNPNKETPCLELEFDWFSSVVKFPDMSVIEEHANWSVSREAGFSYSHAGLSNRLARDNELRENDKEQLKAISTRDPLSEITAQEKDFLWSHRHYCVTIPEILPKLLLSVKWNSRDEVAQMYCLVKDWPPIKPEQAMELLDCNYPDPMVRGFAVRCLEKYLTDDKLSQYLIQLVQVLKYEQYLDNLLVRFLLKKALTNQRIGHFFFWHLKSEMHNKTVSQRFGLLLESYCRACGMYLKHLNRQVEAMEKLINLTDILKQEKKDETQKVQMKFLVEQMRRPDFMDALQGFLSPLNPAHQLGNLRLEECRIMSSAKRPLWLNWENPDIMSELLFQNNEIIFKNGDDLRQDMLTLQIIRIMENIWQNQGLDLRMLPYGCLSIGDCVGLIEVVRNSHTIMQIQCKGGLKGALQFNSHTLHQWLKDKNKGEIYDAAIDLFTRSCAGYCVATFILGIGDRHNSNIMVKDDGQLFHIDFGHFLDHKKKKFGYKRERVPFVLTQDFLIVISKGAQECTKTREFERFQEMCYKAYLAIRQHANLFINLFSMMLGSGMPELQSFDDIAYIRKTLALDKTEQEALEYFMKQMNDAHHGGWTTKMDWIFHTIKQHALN
Method in brief: as §1

[7] = target: T7, kinases of the scanMAX Kinase assay panel (Homo sapiens, UniProt Q8IU85); conditions: CAMK1D; 1 uM
T7 construct: purchased DiscoverX Co. (contract measurement) scanMAX Kinase assay panel
Method in brief: as §1

[8] = target: T8, kinases of the scanMAX Kinase assay panel (Homo sapiens, UniProt P54756); conditions: EPHA5; 1 uM
T8 construct: purchased DiscoverX Co. (contract measurement) scanMAX Kinase assay panel
T8 sequence (P54756 25-1037): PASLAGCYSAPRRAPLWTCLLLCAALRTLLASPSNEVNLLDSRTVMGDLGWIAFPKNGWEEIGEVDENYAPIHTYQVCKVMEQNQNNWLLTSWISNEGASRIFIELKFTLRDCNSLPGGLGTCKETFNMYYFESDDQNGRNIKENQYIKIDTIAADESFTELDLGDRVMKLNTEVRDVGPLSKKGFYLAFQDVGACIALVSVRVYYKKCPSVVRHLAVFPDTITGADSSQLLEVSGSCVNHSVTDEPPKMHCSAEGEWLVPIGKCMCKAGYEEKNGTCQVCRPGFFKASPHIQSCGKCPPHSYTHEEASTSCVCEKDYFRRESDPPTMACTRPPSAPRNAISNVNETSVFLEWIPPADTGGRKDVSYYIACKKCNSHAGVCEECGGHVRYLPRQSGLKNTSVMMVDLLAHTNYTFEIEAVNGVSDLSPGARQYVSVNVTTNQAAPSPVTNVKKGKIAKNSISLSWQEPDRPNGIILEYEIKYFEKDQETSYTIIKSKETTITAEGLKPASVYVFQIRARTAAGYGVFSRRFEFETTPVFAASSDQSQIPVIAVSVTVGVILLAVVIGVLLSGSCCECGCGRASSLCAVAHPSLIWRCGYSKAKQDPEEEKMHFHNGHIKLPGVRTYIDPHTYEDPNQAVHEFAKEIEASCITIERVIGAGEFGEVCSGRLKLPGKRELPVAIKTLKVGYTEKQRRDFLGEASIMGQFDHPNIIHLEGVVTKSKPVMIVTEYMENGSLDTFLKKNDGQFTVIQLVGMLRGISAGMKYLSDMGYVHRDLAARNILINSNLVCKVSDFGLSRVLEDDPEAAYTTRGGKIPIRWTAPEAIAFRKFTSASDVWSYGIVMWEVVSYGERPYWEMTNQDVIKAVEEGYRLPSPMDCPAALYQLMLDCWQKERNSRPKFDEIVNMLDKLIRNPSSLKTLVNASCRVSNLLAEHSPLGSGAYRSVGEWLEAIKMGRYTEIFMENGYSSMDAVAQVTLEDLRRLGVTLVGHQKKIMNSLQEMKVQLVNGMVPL
Method in brief: as §1

Compound	remaining binding at 1 µM [1]	remaining binding at 1 µM [2]	remaining binding at 1 µM [3]	remaining binding at 1 µM [4]	remaining binding at 1 µM [5]	remaining binding at 1 µM [6]	remaining binding at 1 µM [7]	remaining binding at 1 µM [8]
CC1(Nc2nc(Nc3cnn([C@H]4CCN(C5COC5)C[C@@H]4F)c3Cl)nc3[nH]cc(C#N)c23)CC1 [Example 52, 2-((5-chloro-1-((3S,4S)-3-fluoro-1-(oxetane-3-yl)piperidine-4-yl)-1H-pyrazole-4-yl)amino)((1-methylcyclopropyl)amino)-7H-pyrrolo[2,3-d]pyrimidine-5-carbonitrile]	0.1%	78%	56%	100%	17%	71%	14%	79%
CNc1nc(Nc2ccc(C(=O)N3CCOCC3)cc2OC)nc2[nH]cc(C#N)c12 [Example 1, 2-((2-methoxy-4-(morpholine-4-carbonyl)phenyl)amino)-4-(methylamino)-7H-pyrrolo[2,3-d]pyrimidine-5-carbonitrile]	92%	88%	52%	63%	68%	94%	50%	87%
CCNc1nc(Nc2ccc(C(=O)N3CCC(N4CCOCC4)CC3)cc2OC)nc2[nH]cc(C(F)(F)F)c12 [Example 104, (4-((4-(ethylamino)-5-(trifluoromethyl)-7H-pyrrolo[2,3-d]pyrimidine-2-yl)amino)-3-methoxyphenyl)(4-morpholinopiperidine-1-yl)methanone]	64%	95%	100%	100%	100%	90%	66%	100%
